From ChEMBL document CHEMBL2434905, “2-Amino-6-chloro-3,4-dihydroquinazoline: A novel 5-HT3 receptor antagonist with antidepressant character” (Bioorg Med Chem Lett, 2013) come the findings set out here.

Structures are written as SMILES. Activity calls are given as the source filed them. No cut-off for these calls is given here.

For experiment [1], the target named is T1, 5-hydroxytryptamine receptor 3A (Homo sapiens, UniProt P46098).
T1 sequence (P46098 whole entry): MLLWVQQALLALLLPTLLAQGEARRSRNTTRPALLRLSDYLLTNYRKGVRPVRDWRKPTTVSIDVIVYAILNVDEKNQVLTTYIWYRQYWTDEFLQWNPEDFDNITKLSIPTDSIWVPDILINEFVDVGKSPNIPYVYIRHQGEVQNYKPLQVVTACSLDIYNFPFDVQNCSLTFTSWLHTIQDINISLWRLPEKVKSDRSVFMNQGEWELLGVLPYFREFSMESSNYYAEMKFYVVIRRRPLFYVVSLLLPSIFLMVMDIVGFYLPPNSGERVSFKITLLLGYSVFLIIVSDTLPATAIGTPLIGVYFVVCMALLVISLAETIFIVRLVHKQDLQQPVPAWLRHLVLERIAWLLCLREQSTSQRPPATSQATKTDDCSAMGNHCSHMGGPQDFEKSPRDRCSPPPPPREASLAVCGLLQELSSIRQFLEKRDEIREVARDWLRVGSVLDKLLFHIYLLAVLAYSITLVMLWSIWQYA
As to the kind of experiment: Displacement of [3H]GR65630 from 5-HT3 receptor (unknown origin) expressed in mouse/rat NG108-15 cells after 30 mins by liquid scintillation counting analysis. Format: cell-based. In general terms: Displacement assays read how much labelled ligand stays bound in the presence of the test substance.

A further experiment concerns Mus musculus. Put plainly: Antidepressant activity in ICR mouse assessed as immobility time at 20 mg/kg, ip by tail suspension test. Format: functional, organism-based. Also noted: dose 20 mg/kg.
Experiment [2] concerns the target T1, 5-hydroxytryptamine receptor 3A. As to the kind of experiment: Displacement of [3H]GR65630 from human 5-HT3A receptor expressed in HEK293 cells by liquid scintillation counting analysis. Format: cell-based.
Experiment [3] concerns the target T2, 5-hydroxytryptamine receptor 3A (Mus musculus, UniProt P23979).
T2 sequence (P23979 whole entry): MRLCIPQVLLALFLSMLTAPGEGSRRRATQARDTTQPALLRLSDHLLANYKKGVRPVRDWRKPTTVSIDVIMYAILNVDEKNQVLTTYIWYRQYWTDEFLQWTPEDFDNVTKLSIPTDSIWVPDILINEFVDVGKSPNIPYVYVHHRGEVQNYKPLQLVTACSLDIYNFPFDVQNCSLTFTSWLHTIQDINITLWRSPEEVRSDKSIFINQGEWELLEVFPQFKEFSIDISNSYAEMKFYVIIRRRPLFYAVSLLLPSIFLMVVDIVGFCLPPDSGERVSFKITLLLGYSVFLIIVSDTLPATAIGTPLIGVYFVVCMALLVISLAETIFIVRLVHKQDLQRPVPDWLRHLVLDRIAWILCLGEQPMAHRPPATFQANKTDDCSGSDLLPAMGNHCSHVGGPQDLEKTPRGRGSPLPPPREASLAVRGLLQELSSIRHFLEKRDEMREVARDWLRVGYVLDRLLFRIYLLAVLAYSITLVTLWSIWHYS
Put plainly: Displacement of [3H]LY278584 from mouse 5-HT3A receptor.

As a reminder, the Ki is the equilibrium dissociation constant of an inhibitor or competing ligand from its target. A low value points to a stronger hold on the target. With `NC(N)=Nc1cccc(Cl)c1`, the Ki in experiment [1] was determined as 32 nM.
With `CN(C)CCCN1c2ccccc2CCc2ccccc21`, the outcome with Mus musculus was Active.
For the compound `CN1CCN2c3ncccc3Cc3ccccc3C2C1` (stereo unspecified) [MIRTAZAPINE], the Ki in experiment [2] was 2900 nM.
With `CNCCC(Oc1ccc(C(F)(F)F)cc1)c1ccccc1` (stereo unspecified), the result in the experiment with Mus musculus was Active.
The compound `NC1=Nc2cc(Cl)ccc2CN1` showed a Ki in experiment [3] of 1970 nM.
Turning to `CNCCCN1c2ccccc2CCc2ccccc21`, the result in the experiment on Mus musculus was Active.
